Source: ChEMBL document CHEMBL4602695, “Discovery and SARs of 5-Chloro-N4-phenyl-N2-(pyridin-2-yl)pyrimidine-2,4-diamine Derivatives as Oral Available and Dual CDK 6 and 9 Inhibitors with Potent Antitumor Activity” (J Med Chem, 2020)
pIC50: −log10 of the molar value. Calls of active or inactive are those of the source. The rule behind the calls is not given here.

Key:
[1] = system: MDA-MB-231; test: Cell cycle arrest in human MDA-MB-231 cells assessed as accumulation at G0/G1 phase at 20 uM measured after 48 hrs by propidium iodide staining based flow cytometry (reference value: 57.65%); format: functional
[2] = system: Jurkat; test: Antiproliferative activity against human Jurkat cells assessed as inhibition of cell proliferation measured after 48 hrs by CCK8 assay; format: functional, cell-based
[3] = system: MDA-MB-231; test: Antiproliferative activity against human MDA-MB-231 cells assessed as inhibition of cell proliferation measured after 48 hrs by CCK8 assay; format: functional, cell-based; conditions: for GI50: MDA-MB-231, 48 h
[4] = system: MDA-MB-231; test: Induction of apoptosis in human MDA-MB-231 cells assessed as late apoptotic cells at 20 uM measured after 48 hrs by Annexin V-FITC/propidium iodide staining based flow cytometry (2.78%); format: functional
[5] = system: MCF7; test: Antiproliferative activity against human MCF7 cells assessed as inhibition of cell proliferation measured after 48 hrs by CCK8 assay; format: functional, cell-based; conditions: for GI50: MCF7, 48 h
[6] = system: MDA-MB-231; test: Induction of apoptosis in human MDA-MB-231 cells assessed as necrotic cells at 20 uM measured after 48 hrs by Annexin V-FITC/propidium iodide staining based flow cytometry (0.498%); format: functional
[7] = system: MDA-MB-231; test: Induction of apoptosis in human MDA-MB-231 cells assessed as viable cells at 20 uM measured after 48 hrs by Annexin V-FITC/propidium iodide staining based flow cytometry (95.8%); format: functional; conditions: MDA-MB-231, 48 h, read-out: Activity
[8] = system: MDA-MB-231; test: Induction of apoptosis in human MDA-MB-231 cells assessed as early apoptotic cells at 20 uM measured after 48 hrs by Annexin V-FITC/propidium iodide staining based flow cytometry (0.877%); format: functional
[9] = system: MDA-MB-231; test: Cell cycle arrest in human MDA-MB-231 cells assessed as accumulation at S phase at 20 uM measured after 48 hrs by propidium iodide staining based flow cytometry (reference value: 26.45%); format: functional
[10] = system: MDA-MB-231; test: Cell cycle arrest in human MDA-MB-231 cells assessed as accumulation at G2/M phase at 20 uM measured after 48 hrs by propidium iodide staining based flow cytometry (reference value: 15.9%); format: functional
[11] = Cytotoxicity against human L02 cells assessed as inhibition of cell proliferation measured after 48 hrs by CCK8 assay; format: cell-based
[12] = species on record: Homo sapiens
[13] = biological target: CDK9/Cyclin K (Homo sapiens, UniProt P50750); test: biochemical
Chain of CDK9/Cyclin K (P50750 whole entry): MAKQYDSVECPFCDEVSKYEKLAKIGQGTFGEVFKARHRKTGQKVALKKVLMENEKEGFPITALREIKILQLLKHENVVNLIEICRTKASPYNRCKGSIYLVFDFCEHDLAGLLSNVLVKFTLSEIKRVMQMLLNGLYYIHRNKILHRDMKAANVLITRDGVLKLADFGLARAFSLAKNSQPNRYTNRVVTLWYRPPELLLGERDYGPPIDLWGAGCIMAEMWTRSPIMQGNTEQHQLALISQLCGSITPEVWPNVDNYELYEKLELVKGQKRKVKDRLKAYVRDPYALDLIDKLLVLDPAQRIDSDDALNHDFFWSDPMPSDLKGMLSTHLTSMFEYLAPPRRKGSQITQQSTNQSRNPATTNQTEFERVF
Chain of CDK9/Cyclin K (O75909 whole entry, further chain): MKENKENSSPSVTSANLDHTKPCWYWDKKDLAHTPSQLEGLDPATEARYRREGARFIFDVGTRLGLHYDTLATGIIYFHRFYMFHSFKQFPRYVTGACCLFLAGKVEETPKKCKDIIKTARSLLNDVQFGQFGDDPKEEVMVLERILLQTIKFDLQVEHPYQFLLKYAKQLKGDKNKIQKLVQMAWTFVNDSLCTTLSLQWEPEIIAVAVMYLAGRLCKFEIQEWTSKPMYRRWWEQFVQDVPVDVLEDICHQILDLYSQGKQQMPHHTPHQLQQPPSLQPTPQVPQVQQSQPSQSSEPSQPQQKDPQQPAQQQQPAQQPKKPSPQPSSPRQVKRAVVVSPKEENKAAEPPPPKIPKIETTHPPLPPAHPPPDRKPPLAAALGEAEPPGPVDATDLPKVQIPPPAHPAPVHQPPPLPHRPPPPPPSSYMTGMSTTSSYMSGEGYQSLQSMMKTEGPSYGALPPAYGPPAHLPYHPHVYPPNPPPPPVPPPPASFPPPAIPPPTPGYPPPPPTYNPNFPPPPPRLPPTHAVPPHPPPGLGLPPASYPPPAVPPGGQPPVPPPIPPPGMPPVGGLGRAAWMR

[14] = biological target: CDK2/Cyclin A2 (Homo sapiens, UniProt P24941); parameters: species or system Sf9
[15] = biological target: CDK6/cyclin D3 (Homo sapiens, UniProt Q00534); parameters: species or system Sf9
Chain of CDK6/cyclin D3 (P30281 whole entry): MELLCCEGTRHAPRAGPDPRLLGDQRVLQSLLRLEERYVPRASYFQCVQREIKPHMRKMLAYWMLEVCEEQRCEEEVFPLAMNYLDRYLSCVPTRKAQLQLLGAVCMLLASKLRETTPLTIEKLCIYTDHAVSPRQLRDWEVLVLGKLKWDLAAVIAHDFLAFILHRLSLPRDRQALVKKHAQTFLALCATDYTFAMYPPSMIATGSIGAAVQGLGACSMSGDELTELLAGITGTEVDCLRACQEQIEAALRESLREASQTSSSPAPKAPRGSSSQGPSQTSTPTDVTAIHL
Chain of CDK6/cyclin D3 (Q00534 whole entry): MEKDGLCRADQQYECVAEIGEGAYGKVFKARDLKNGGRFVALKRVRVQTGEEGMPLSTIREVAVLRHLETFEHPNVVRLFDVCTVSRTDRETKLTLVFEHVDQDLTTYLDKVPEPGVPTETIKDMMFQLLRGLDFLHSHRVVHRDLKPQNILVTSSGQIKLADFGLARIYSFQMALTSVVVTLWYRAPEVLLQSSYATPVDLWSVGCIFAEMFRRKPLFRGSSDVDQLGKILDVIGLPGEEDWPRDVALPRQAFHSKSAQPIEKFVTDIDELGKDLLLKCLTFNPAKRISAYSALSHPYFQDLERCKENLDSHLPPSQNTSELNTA

[16] = biological target: CDK9/Cyclin K (Homo sapiens) (UniProt P50750+O75909); conditions: Sf9
[17] = Thermodynamic equilibrium solubility in normal saline by HPLC-based shake flask method; format: physicochemical; conditions: read-out: Therm_solubility
[18] = Thermodynamic equilibrium solubility in water by HPLC-based shake flask method; format: physicochemical; conditions: read-out: Therm_solubility
[19] = system: MDA-MB-231; test: Antitumor activity against human MDA-MB-231 cells xenografted in BALB/c nu/nu mouse assessed as tumor growth inhibition at 45 mg/kg, po administered once daily for 3 weeks and measured at 3 days interval during compound dosing; format: functional, organism-based
[20] = biological target: Cyclin-dependent kinase 6 (Homo sapiens) (UniProt Q00534); test: Inhibition of CDK6 in human MDA-MB-231 cells assessed as down regulation of E2F1 expression at 4 to 12 uM measured after 48 hrs by Western blot analysis; format: cell-based
Chain of Cyclin-dependent kinase 6 (Homo sapiens) (Q00534 whole entry): as above

[21] = system: MDA-MB-231; test: Antitumor activity against human MDA-MB-231 cells xenografted in po dosed BALB/c nu/nu mouse assessed as tumor growth inhibition administered once daily for 3 weeks and measured at 3 days interval during compound dosing; format: functional, organism-based
[22] = biological target: Cyclin-dependent kinase 9 (Homo sapiens) (UniProt P50750); test: Inhibition of CDK9 in human MDA-MB-231 cells assessed as down regulation of p-Pol II CTD S2 expression at 4 to 12 uM measured after 48 hrs by Western blot analysis; format: cell-based
Chain of Cyclin-dependent kinase 9 (Homo sapiens) (P50750 whole entry, the tested form may be a part): as the sequence (P50750 whole entry) above

[23] = system: MDA-MB-231; test: Induction of apoptosis in human MDA-MB-231 cells xenografted in BALB/c nu/nu mouse assessed as increase in nucleoplasm staining at 22.5 to 90 mg/kg, po administered once daily for 3 weeks measured post-last dose by H and E staining based histopathological analysis; format: functional, organism-based
[24] = biological target: CDK9/cyclin T1 (Homo sapiens) (UniProt O60563+P50750); test: Binding affinity to recombinant His-tagged CDK9/cyclin T1 (unknown origin) expressed in HEK293T cells assessed as thermal stabilization of protein at 10 uM measured for 3 mins at 57 degC by CETSA; format: cell-based; conditions: HEK-293T
[25] = biological target: Cyclin-dependent kinase 9 (Homo sapiens) (UniProt P50750); test: Inhibition of CDK9 in human MDA-MB-231 cells assessed as down regulation of cyclin T1 expression at 4 to 12 uM measured after 48 hrs by Western blot analysis; format: cell-based
[26] = system: MDA-MB-231; test: Induction of apoptosis in human MDA-MB-231 cells xenografted in BALB/c nu/nu mouse assessed as increase in cytoplasm shrinkage at 22.5 to 90 mg/kg, po administered once daily for 3 weeks measured post-last dose by H and E staining based histopathological analysis; format: functional, organism-based
[27] = system: MDA-MB-231; test: Induction of intracellular reactive oxygen species production in human MDA-MB-231 cells measured after 48 hrs by DCFH-DA probe based flow cytometry; format: functional, cell-based
[28] = biological target: Cyclin-dependent kinase 9 (Homo sapiens) (UniProt P50750); test: Inhibition of CDK9 in human MDA-MB-231 cells assessed as reduction in c-Myc mRNA level at 4 to 12 uM by trizol reagent based qRT-PCR analysis; format: cell-based
[29] = biological target: Cyclin-C/Cyclin-dependent kinase 19 (Homo sapiens) (UniProt Q9BWU1+P24863); test: Inhibition of recombinant human GST-tagged/His-tagged CDK11 (1 to 502 residues)/cyclinC (1 to 283 residues) expressed in insect cells at 1 uM using PAK1 (148 to 210 residues) as substrate measured after 10 to 60 mins by ADP-glo assay relative to control
[30] = system: MDA-MB-231; test: Effect on CDK6 expression in human MDA-MB-231 cells at 4 to 12 uM measured after 48 hrs by Western blot analysis; format: functional, cell-based
[31] = system: MDA-MB-231; test: Effect on CDK9 expression in human MDA-MB-231 cells at 4 to 12 uM measured after 48 hrs by Western blot analysis; format: functional, cell-based
[32] = biological target: T1, CDK6/cyclin D3 (Homo sapiens) (UniProt P30281+Q00534); test: Binding affinity to recombinant His-tagged CDK6/cyclin D3 (unknown origin) expressed in HEK293T cells assessed as thermal stabilization of protein at 10 uM measured for 3 mins at 57 degC by CETSA; format: cell-based; conditions: HEK-293T
[33] = biological target: Cyclin-dependent kinase 9 (Homo sapiens) (UniProt P50750); test: Inhibition of CDK9 in human MDA-MB-231 cells assessed as reduction in Mcl-1 mRNA level at 4 to 12 uM by trizol reagent based qRT-PCR analysis; format: cell-based
[34] = system: MDA-MB-231; test: Induction of apoptosis in human MDA-MB-231 cells xenografted in BALB/c nu/nu mouse assessed as increase in intracellular space at 22.5 to 90 mg/kg, po administered once daily for 3 weeks measured post-last dose by H and E staining based histopathological analysis; format: functional, organism-based
[35] = biological target: Cyclin-dependent kinase 6 (Homo sapiens) (UniProt Q00534); test: Inhibition of CDK6 in human MDA-MB-231 cells assessed as down regulation of p-Rb expression at 4 to 12 uM measured after 48 hrs by Western blot analysis; format: cell-based
[36] = biological target: CDK3/Cyclin E (Homo sapiens) (UniProt P24864+Q00526); conditions: Sf9, 1 uM
Chain of CDK3/Cyclin E (Homo sapiens) (P24864 whole entry, looked up): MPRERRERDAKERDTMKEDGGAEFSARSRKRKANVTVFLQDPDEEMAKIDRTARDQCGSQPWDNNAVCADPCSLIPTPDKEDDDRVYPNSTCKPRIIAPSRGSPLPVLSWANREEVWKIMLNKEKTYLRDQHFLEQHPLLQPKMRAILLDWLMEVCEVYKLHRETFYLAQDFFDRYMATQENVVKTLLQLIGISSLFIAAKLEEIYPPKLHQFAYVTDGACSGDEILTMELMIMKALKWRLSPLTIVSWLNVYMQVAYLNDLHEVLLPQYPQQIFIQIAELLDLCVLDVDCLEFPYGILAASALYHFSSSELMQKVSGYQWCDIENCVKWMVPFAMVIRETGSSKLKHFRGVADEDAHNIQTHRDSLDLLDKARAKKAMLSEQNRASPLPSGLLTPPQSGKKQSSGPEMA
Chain of CDK3/Cyclin E (Homo sapiens) (Q00526 whole entry, looked up): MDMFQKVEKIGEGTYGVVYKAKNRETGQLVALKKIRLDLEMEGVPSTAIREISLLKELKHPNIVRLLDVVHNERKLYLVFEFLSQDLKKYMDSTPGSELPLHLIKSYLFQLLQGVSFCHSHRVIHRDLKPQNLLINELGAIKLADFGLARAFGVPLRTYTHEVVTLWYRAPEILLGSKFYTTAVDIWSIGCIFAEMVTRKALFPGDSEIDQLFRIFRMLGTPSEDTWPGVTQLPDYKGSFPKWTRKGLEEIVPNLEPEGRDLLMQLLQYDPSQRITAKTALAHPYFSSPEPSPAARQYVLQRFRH

[37] = biological target: T1, CDK6/cyclin D3 (Homo sapiens); conditions: Sf9

| Structure (SMILES) | GI50 [2] | GI50 [3] | GI50 [5] | GI50 at 48 h [11] | pIC50 [13] | pIC50 [14] | pIC50 [15] | inhibition [16] | also measured |
| --- | --- | --- | --- | --- | --- | --- | --- | --- | --- |
| CC(=O)c1c(C)c2cnc(Nc3ccc(N4CCNCC4)cn3)nc2n(C2CCCC2)c1=O [PALBOCICLIB] | > 100 µM | > 100 µM | > 100 µM | > 100 µM |  |  |  |  | Activity [1]: 91.91%; Activity [4]: 5.26%; Activity [6]: 2.32%; viability at 20 µM [7]: 89%; Activity [8]: 3.43%; Activity [9]: 4.98%; Activity [10]: 3.12% |
| Cc1ccccc1Nc1nc(Nc2ccc(N3CCN(C)CC3)cn2)ncc1Cl | 8.08 µM | 7.47 µM | 5.21 µM | 5.98 µM | 6.82 | < 5.00 | 7.80 |  | Ratio IC50 [12]: 10 |
| CN1CCN(c2ccc(Nc3ncc(Cl)c(Nc4ccc(F)cc4)n3)nc2)CC1 |  |  |  |  |  |  |  | inactive |  |
| CC(=O)Nc1cccc(Nc2nc(Nc3ccc(N4CCN(C)CC4)cn3)ncc2Cl)c1.Cl |  |  |  |  |  |  |  |  | solubility thermodynamic [17]: 3960 µg/mL; solubility thermodynamic [18]: 7700 µg/mL |
| CN1CCN(c2ccc(Nc3ncc(Cl)c(Nc4cccc(OC(F)(F)F)c4)n3)nc2)CC1 |  |  |  |  |  |  |  | inactive |  |
| CN1CCN(c2ccc(Nc3ncc(Cl)c(Nc4ccc(C(F)(F)F)cc4)n3)nc2)CC1 |  |  |  |  |  |  |  | inactive |  |
| CCN1CCN(Cc2ccc(Nc3ncc(F)c(-c4cc(F)c5nc(C)n(C(C)C)c5c4)n3)nc2)CC1 [ABEMACICLIB] | 4.63 µM | 3.45 µM | 4.01 µM |  |  |  |  |  | TGI [19]: Active |
| CN1CCN(c2ccc(Nc3ncc(Cl)c(Nc4cccc(F)c4)n3)nc2)CC1 |  |  |  |  |  |  |  | inactive |  |
| CN1CCN(c2ccc(Nc3ncc(Cl)c(Nc4ccc(OC(F)(F)F)cc4)n3)nc2)CC1 |  |  |  |  |  |  |  | inactive |  |
| Cc1ccccc1Nc1nc(Nc2cccnc2)ncc1Cl | 38.6 µM | 41.2 µM | 56.5 µM | 22.9 µM | 5.46 | 7.52 | 5.18 |  |  |
| Cc1ccccc1Nc1nc(Nc2ccc(N3CCCCC3)cn2)ncc1Cl | > 100 µM | > 100 µM | 21.4 µM | 42.4 µM | < 5.00 | 5.32 | < 5.00 |  |  |
| CC(=O)Nc1cccc(Nc2nc(Nc3ccc(N4CCN(C)CC4)cn3)ncc2Cl)c1 |  |  |  |  |  |  |  |  | inhibition [20]: Active; TGI [21]: Dose-dependent effect; inhibition [22]: Active; Activity [23]: Active; Activity [24]: Active; inhibition [25]: Active; Activity [26]: Active; Activity [27]: Dose-dependent effect; inhibition [28]: Active; inhibition [29]: < 6.6%; Activity [30]: inactive; Activity [31]: inactive; Activity [32]: Active; inhibition [33]: Active; Activity [34]: Active; inhibition [35]: Active; inhibition [36]: < 6.6% |
| Cc1ccc(Nc2nc(Nc3ccc(N4CCN(C)CC4)cn3)ncc2Cl)cc1 | 30.9 µM | 4.03 µM | 11.4 µM | 13.9 µM | 5.84 | < 5.00 | 7.06 |  |  |
| CN1CCN(c2ccc(Nc3ncc(Cl)c(Nc4ccc(F)c(C(F)(F)F)c4)n3)nc2)CC1 |  |  |  |  |  |  |  | inactive |  |
| Cc1ccccc1Nc1nc(Nc2ccc(N3CCNCC3)cn2)ncc1Cl | 7.87 µM | 5.06 µM | 3.41 µM | 1.85 µM | 6.94 | 5.69 | 7.38 |  |  |
| COc1ccc(Nc2nc(Nc3ccc(N4CCN(C)CC4)cn3)ncc2Cl)cc1 | 11.2 µM | 8.02 µM | 8.45 µM | 3.15 µM | 5.86 | 5.21 | 6.22 |  |  |
| Cc1ccccc1Nc1nc(Nc2ccc(N3CCOCC3)cc2)ncc1Cl | 8.36 µM | 11.3 µM | > 100 µM | 5.37 µM | 5.95 | 5.57 | 5.77 |  |  |
| Cc1ccccc1Nc1nc(NC2CCCCC2)ncc1Cl | > 100 µM | > 100 µM | > 100 µM | > 100 µM | < 5.00 | < 5.00 | < 5.00 |  |  |
| COc1ccc(CCNc2nc(Nc3ccc(N4CCN(C)CC4)cn3)ncc2Cl)cc1 | > 100 µM | > 100 µM | 38.4 µM | > 100 µM | < 5.00 | < 5.00 | < 5.00 |  |  |
| Cc1ccccc1Nc1nc(NCc2ccccc2)ncc1Cl | > 100 µM | > 100 µM | > 100 µM | > 100 µM | < 5.00 | < 5.00 | < 5.00 |  |  |
| CN1CCN(c2ccc(Nc3ncc(Cl)c(Nc4ccccc4F)n3)nc2)CC1 |  |  |  |  |  |  |  | inactive | inhibition [2]: Active; inhibition [3]: Active; inhibition [5]: Active; inhibition [37]: inactive |
